The text below walks through data of paper PMC8331180, “Development of antibacterial compounds that constrain evolutionary pathways to resistance” (eLife, 2021).

Where a chain is given by its changes, count along the chain named. Values joined by “and” are separate entries in the source; they are usually repeats but may differ in a detail not shown here. Equal entries are not always repeated. Where two headings read alike, the source gives them in different places.

For one assay, the target named is T1, E. coli DHFR P21L mutant (Escherichia coli, UniProt P0ABQ4, P21L).
T1 construct: made in house
T1 sequence (P0ABQ4 1-159 P21L): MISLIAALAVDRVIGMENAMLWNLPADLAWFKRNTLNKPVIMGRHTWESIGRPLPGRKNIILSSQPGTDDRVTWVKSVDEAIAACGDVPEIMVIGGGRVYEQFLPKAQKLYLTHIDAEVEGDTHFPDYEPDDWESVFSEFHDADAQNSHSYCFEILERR
Put plainly: biochemical. The conditions noted are these: for Ki: Ki value, E. coli P21L DHFR, Ki converted from IC50; for inhibition at 200 µM: read-out: inhibition of DHFR catalytic activity.

Another assay has as its target T2, E. coli WT DHFR (Escherichia coli, UniProt P0ABQ4).
T2 construct: made in house
T2 sequence (P0ABQ4 1-159): T1 sequence (P0ABQ4 1-159 P21L) with L21P
Put plainly: biochemical. The conditions noted are these: for Ki: Ki value, E. coli WT DHFR, Ki converted from IC50; for inhibition at 200 µM: read-out: inhibition of DHFR catalytic activity.

A further assay addresses T3, E. coli DHFR L28R mutant (Escherichia coli, UniProt P0ABQ4, L28R).
T3 construct: made in house
T3 sequence (P0ABQ4 1-159 L28R): T1 sequence (P0ABQ4 1-159 P21L) with L21P, L28R
Put plainly: biochemical. The conditions noted are these: for Ki: Ki value, E. coli L28R DHFR, Ki converted from IC50; for inhibition at 200 µM: read-out: inhibition of DHFR catalytic activity.

A further assay has as its target T4, E. coli DHFR A26T mutant (Escherichia coli, UniProt P0ABQ4, A26T).
T4 construct: made in house
T4 sequence (P0ABQ4 1-159 A26T): T1 sequence (P0ABQ4 1-159 P21L) with L21P, A26T
The assay can be described thus: biochemical. Conditions: for Ki: Ki value, E. coli A26T DHFR, Ki converted from IC50; for inhibition at 200 µM: read-out: inhibition of DHFR catalytic activity.

Assay [1] deals with WT E. coli strain. The assay can be described thus: microbe, parasite or virus in culture. The conditions noted are these: Escherichia coli.
Assay [2] relates to E. coli strain with chromosomal A26T DHFR. The assay can be described thus: microbe, parasite or virus in culture. The format is cell-based. The conditions noted are these: Escherichia coli, read-out: Bacterial growth inhibition IC50.
Assay [3] deals with E. coli strain with chromosomal L28R DHFR. Put plainly: microbe, parasite or virus in culture. The assay is classed as cell-based. The conditions noted are these: for IC50: Escherichia coli, read-out: Bacterial growth inhibition IC50.
Assay [4] relates to E. coli strain with chromosomal P21L DHFR. The assay can be described thus: microbe, parasite or virus in culture. The assay is classed as cell-based. Conditions: Escherichia coli, read-out: Bacterial growth inhibition IC50.
The subject of assay [5] is CD15-3-evolved E. coli strains. The assay can be described thus: microbe, parasite or virus in culture. The assay is classed as cell-based. Conditions: Escherichia coli.
For assay [6], the system named is WT and evolved E. coli cells. Put plainly: DIC imaging of cell length. Conditions: 42°C.
The next assay deals with T5, Human DHFR (Homo sapiens, UniProt P00374).
T5 construct: purchased Sigma Aldrich
The assay can be described thus: biochemical. Conditions: for Ki: Human WT DHFR, NT means no inhibition was detected at the maximal compound concentration tested. The assay is classed as biochemical.

Assay [7] relates to WT E. coli strain. Conditions: read-out: Bacterial growth inhibition IC50; WT (naive) E. coli strain, M9 medium, 37°C.
A further assay relates to E. coli BW27783. The assay is classed as cell-based.
In assay [8] the target is T6, E. coli DHFR P21L-L28R mutant (Escherichia coli, UniProt P0ABQ4, L28R/P21L).
T6 construct: made in house
T6 sequence (P0ABQ4 1-159 P21L/L28R): T1 sequence (P0ABQ4 1-159 P21L) with L28R
The assay can be described thus: biochemical.

Assay [9] addresses T7, E. coli DHFR P21L-A26T mutant (Escherichia coli, UniProt P0ABQ4, A26T/P21L).
T7 construct: made in house
T7 sequence (P0ABQ4 1-159 P21L/A26T): T1 sequence (P0ABQ4 1-159 P21L) with A26T
The assay can be described thus: biochemical.

Assay [10] has as its target T8, E. coli DHFR A26T-L28R mutant (Escherichia coli, UniProt P0ABQ4, A26T/L28R).
T8 construct: made in house
T8 sequence (P0ABQ4 1-159 A26T/L28R): T1 sequence (P0ABQ4 1-159 P21L) with L21P, A26T, L28R
The assay can be described thus: biochemical.

The mark [11] stands for this setting: single fixed concentration of 200 µM, P21L DHFR.
Where [12] appears, read: single fixed concentration of 200 µM, WT DHFR.
The mark [13] stands for this setting: single fixed concentration of 200 µM, L28R DHFR.
The mark [14] stands for this setting: single fixed concentration of 200 µM, A26T DHFR.
Setting [15] is: read-out: Bacterial growth inhibition IC50, WT (naive) E. coli strain, M9 medium, 37°C.

With `COc1cc([C@H]2CC(=O)Nc3nc(N)[nH]c(=O)c32)ccc1O` [CD08], the Ki (as a rule, a measure of affinity in units of concentration, obtained from inhibition or displacement) on E. coli DHFR P21L mutant was 3.2 ± 0.4 µM; on E. coli WT DHFR, 6.9 ± 0.6 µM; at E. coli DHFR L28R mutant, 3.1 ± 0.6 µM; at E. coli DHFR A26T mutant, 4.9 ± 1.4 µM. Moreover, the inhibition at 200 µM at E. coli DHFR P21L mutant (setting [11]), on E. coli WT DHFR (setting [12]), at E. coli DHFR L28R mutant (setting [13]) and at E. coli DHFR A26T mutant (setting [14]) was over 30% in each case.
`COc1ccc([C@@H]2CC(c3c(O)[nH]c(=O)n(C)c3=O)=NN2)cc1O` [CD15-2]: the IC50 (usually the point on the concentration scale where inhibition reaches its midpoint) in the assay with WT E. coli strain [1] (setting [15]) amounted to 129 µM; in assay [2], 119 µM; in assay [3] it was 88 µM; in assay [4] it was 125 µM.
For `Cn1c(=O)[nH]c(O)c(C2=NN[C@H](c3cccc4ccccc34)C2)c1=O` [CD15-3], the IC50 was 71.8 µM in the assay with WT E. coli strain [1] (setting [15]); 50 to 75 µM with WT E. coli strain [1] (read-out: IC50 against WT and TMP-resistant strains); 73 µM in assay [2]; 132 µM in assay [5] (CD15-3-evolved strain Evolved 1, M9 media); 166 µM in assay [5] (CD15-3-evolved strain Evolved 2, M9 media); 170 µM in assay [5] (CD15-3-evolved strain Evolved 3, M9 media). In addition, the IC50 in assay [5] (range over strains evolved under CD15-3, read-out: IC50 of evolved strains) is 132 to 170 µM; in assay [3], 48 µM; in assay [4] it was 57 µM; in the assay with WT E. coli strain [7], 72 µM. Moreover, the Ki was found to be 2.51 µM on E. coli DHFR P21L mutant, 5.52 µM at E. coli WT DHFR, 0.98 µM on E. coli DHFR L28R mutant and 3.48 µM on E. coli DHFR A26T mutant. In [3] (growth inhibition IC50, better than TMP), the “efficacy relative to TMP on L28R E. coli variant strain” value is listed as “about 2.4 fold”. In addition, the median cell length in assay [6] (WT cells treated at IC50 concentration, 4 hours) came to 2.34 µm; in assay [6] (evolved cells treated at IC50 concentration), 1.26 µm. For the same compound, on Human DHFR (CD15-3 17.56–200 µM, 25°C), the “inhibitory activity against human DHFR” value is “no inhibitory activity”. For the same compound, the “effect of folA mix supplement on drug-induced growth inhibition” value in the assay with E. coli BW27783 (M9 media with folA mix) was “partially rescued”. In addition, the “effect of inactive D27F DHFR overexpression on drug-induced growth inhibition” value in the assay with E. coli BW27783 (pBAD D27F, 0.005% arabinose) is on record as “no growth recovery”. Moreover, in the assay on E. coli BW27783 (pBAD folA, 0.005% arabinose), the “effect of WT DHFR overexpression on drug-induced growth inhibition” value is recorded as “partially rescued growth”.
As to `Cn1c(=O)[nH]c(O)c(C2=NN[C@H](c3ccc4c(c3)OCO4)C2)c1=O` [CD15-4], the IC50 with WT E. coli strain [1] (setting [15]) amounted to 302 µM; in assay [2], 123 µM; in assay [3], 67 µM; in assay [4] it was 92 µM.
For `COc1cc([C@@H]2CC(c3c(O)[nH]c(=O)n(C)c3=O)=NN2)cc(OC)c1OC` [CD15-6] the same measures were 175 µM, 172 µM, 167 µM and 159 µM.
Turning to `COc1ccc([C@@H]2CC(c3c(O)[nH]c(=O)n(C)c3=O)=NN2)cc1OC` [CD15], the IC50 worked out at 170 µM with WT E. coli strain [1] (setting [15]), 197 µM in [2], 159 µM in [3] and 176 µM in assay [4]. Also, the inhibitory constant (Ki) on E. coli DHFR P21L mutant came out at 1.42 µM; at E. coli WT DHFR it was 3.35 µM; at Human DHFR it was 0.38 µM; on E. coli DHFR L28R mutant, 1.04 µM; in assay [8], 0.56 µM; on E. coli DHFR A26T mutant, 2.43 µM. Moreover, the Ki in [9] came out at 3.26 µM; in assay [10], 0.61 µM. Also, the inhibition at 200 µM on E. coli DHFR P21L mutant (setting [11]), on E. coli WT DHFR (setting [12]), at E. coli DHFR L28R mutant (setting [13]) and at E. coli DHFR A26T mutant (setting [14]) was over 30% throughout.
As for `C[C@H](Oc1ccc(C=C2C(=O)NC(=O)NC2=O)cc1)C(=O)O` [CD17-3], the 50% inhibitory concentration (IC50) amounted to 2950 µM with WT E. coli strain [1] (setting [15]), 2150 µM in [2], 907 µM in assay [3] and 2840 µM in assay [4].
Turning to `O=C(O)COc1c(Cl)cc(C=C2C(=O)NC(=O)NC2=O)cc1Cl` [CD17-4], the IC50 in [3] worked out at 1860 µM.
`CCOc1cc(C=C2C(=O)NC(=O)NC2=O)ccc1OCC(=O)O` [CD17]: the IC50 is 1770 µM in the assay with WT E. coli strain [1] (setting [15]), 1920 µM in assay [2], 932 µM in assay [3] and 5050 µM in [4]. Moreover, the Ki on E. coli DHFR P21L mutant was 3.7 µM; on E. coli WT DHFR, 8.2 µM and 8.18 µM; on Human DHFR it was 0.74 µM; on E. coli DHFR L28R mutant, 3.7 µM and 3.65 µM; in assay [8], 1.37 µM; at E. coli DHFR A26T mutant, 6.7 µM and 6.73 µM. Also, the inhibitory constant (Ki) was found to be 9.2 µM in assay [9] and 2.04 µM in assay [10]. Besides, the inhibition at 200 µM on E. coli DHFR P21L mutant (setting [11]), on E. coli WT DHFR (setting [12]), on E. coli DHFR L28R mutant (setting [13]) and at E. coli DHFR A26T mutant (setting [14]) was over 30% each time.
In the case of `CSc1nc2nc(N)nc(N)c2s1` [CD20], the “inhibition of DHFR catalytic activity” value is recorded as “showed inhibition” against E. coli DHFR P21L mutant (setting [11]), “showed inhibition” against E. coli WT DHFR (setting [12]), “not” against E. coli DHFR L28R mutant (setting [13]) and “showed inhibition” at E. coli DHFR A26T mutant (setting [14]).
As to `Cc1cc(NS(=O)(=O)c2ccc(N)cc2)no1` [Sulfamethoxazole, reference compound], the IC50 was 2.9 µM in the assay with WT E. coli strain [1] and 6.7 µM in assay [5] (CD15-3-evolved cells, cross resistance test, growth rate).
Regarding `COc1cc(Cc2cnc(N)nc2N)cc(OC)c1OC` [TMP, trimethoprim, reference compound], the values for the IC50 in the assay on WT E. coli strain [1] and with WT E. coli strain [1] (read-out: Bacterial growth inhibition IC50) were 0.4 µg/mL and 1.3 µM, respectively.
